Measurements: patent US20060166872A1, “Fp receptor antagonists or pgf2 alpha antagonists for treating menorrhagia” (priority 2002, published 2006)
“Also recorded” adds a separate entry of the source.

How the values were obtained:
[1] = tested on: prostaglandin receptor TP; settings: 10 μM; cited from earlier work
[2] = molecular target: T1, prostaglandin receptor DP (Homo sapiens, UniProt Q13258); settings: 10 μM; cited from earlier work
T1 sequence (Q13258 1-359): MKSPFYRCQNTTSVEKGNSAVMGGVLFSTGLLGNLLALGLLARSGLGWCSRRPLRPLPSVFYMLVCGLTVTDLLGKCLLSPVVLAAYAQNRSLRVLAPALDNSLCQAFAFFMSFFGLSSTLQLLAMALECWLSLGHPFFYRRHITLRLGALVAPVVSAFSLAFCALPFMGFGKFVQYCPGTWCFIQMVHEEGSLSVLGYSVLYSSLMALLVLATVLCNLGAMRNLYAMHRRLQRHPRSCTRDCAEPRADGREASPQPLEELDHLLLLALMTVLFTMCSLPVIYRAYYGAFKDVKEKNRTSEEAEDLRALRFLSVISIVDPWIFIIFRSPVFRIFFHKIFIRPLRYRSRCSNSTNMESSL

[3] = molecular target: prostaglandin receptor EP2 (Homo sapiens, UniProt P43116); settings: 10 μM; cited from earlier work
[4] = molecular target: prostaglandin receptor EP4 (Homo sapiens, UniProt P35408); settings: 10 μM; cited from earlier work
FP receptor = settings: cited from earlier work
Ishikawa cells [5] = experiment: Proliferation assay, BrdU incorporation ELISA; assay type: cell-based, human; settings: for basal proliferation (BrdU incorporation): no PGF2α
Description: Proliferation of Ishikawa cells was determined using a BrdU incorporation ELISA (Roche Diagnostics GmbH, Mannheim, Germany). Briefly, Ishikawa cells were seeded at 5×10^3 cells per well in a 96-well plate and allowed to adhere overnight. Cells were next starved for 24 hr with indomethacin 1.5 μg/ml before 24 h PGF2α treatment (1 nM-1 μM) in serum-free medium containing indomethacin. Inhibitors were added to cells for 60 min before PGF2α with the control well receiving the same concentration of vehicle. Following 24 h treatment, cells were labelled with BrdU for 4 h, then fixed and assayed for BrdU incorporation using standard immunohistochemical techniques. Results were plotted as percentages of untreated cells.

PGES = molecular target: T2, PGES (Homo sapiens, UniProt O14684); settings: read-out: IC50 for inhibition of PGES activity; cited from earlier work
T2 sequence (O14684 1-152): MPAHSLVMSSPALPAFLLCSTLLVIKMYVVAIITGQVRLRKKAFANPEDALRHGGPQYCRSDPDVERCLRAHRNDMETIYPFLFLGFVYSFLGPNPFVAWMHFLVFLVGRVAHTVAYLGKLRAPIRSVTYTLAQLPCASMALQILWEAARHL

human endometrium = experiment: Total inositol phosphate (InsP) assay in human endometrium; assay type: cell-based
Description: (§1) PGF2α stimulation of total InsP production was as described (21). Briefly, tissue samples or Ishikawa cells were incubated with inositol free DMEM containing 1% dialyzed heat-inactivated FCS and 0.5 μCi/well myo-[^3H]inositol (Amersham Pharmacia Biotech) for 48 hours. Medium was removed, and cells washed with 1 ml buffer (140 mM NaCl, 20 mM HEPES, 4 mM KCl, 8 mM glucose, 1 mM MgCl2, 1 mM CaCl2, 1 mg/ml bovine serum albumin) containing 10 mM LiCl. Cells were then incubated for 1 hour at 37° C. in 1 ml buffer with or without inhibitors. Following incubation agonist was added at the required concentration and cells incubated for 1 hour. Reactions were terminated by the removal of agonist and the addition of 500 μl ice cold 10 mM formic acid, which was incubated for 30 minutes at 4° C. Total [^3H] inositol phosphates was separated from the formic acid cell extracts on AG 1-X8 anion exchange resin (Bio-Rad) and eluted with a 1 M ammonium formate/0.1 M formic acid solution. The associated radioactivity was determined by liquid scintillation counting and plotted relative to protein concentrations determined using the modified Lowry method.

Ishikawa cells [6] = experiment: Total inositol phosphate (InsP) assay in Ishikawa cells; assay type: cell-based, human; settings: PGF2α 100 nM
Description: as §1

Ishikawa cells [7] = experiment: PGF2α-induced ERK phosphorylation in Ishikawa cells; assay type: cell-based, human; settings: 100 nM, 10 min
Description: PGF2α-induced ERK phosphorylation in Ishikawa cells. PGF2α 100 nM was incubated for 10 and 30 min. U73122 2 μM was pre-incubated for 60 min before treatment with PGF2α.

HCT-8 = HCT-8 human colon adenocarcinoma cell line; cited from earlier work
HT-29 = HT-29 human colon adenocarcinoma cell line; cited from earlier work

Chain of prostaglandin receptor EP4 (P35408 whole entry): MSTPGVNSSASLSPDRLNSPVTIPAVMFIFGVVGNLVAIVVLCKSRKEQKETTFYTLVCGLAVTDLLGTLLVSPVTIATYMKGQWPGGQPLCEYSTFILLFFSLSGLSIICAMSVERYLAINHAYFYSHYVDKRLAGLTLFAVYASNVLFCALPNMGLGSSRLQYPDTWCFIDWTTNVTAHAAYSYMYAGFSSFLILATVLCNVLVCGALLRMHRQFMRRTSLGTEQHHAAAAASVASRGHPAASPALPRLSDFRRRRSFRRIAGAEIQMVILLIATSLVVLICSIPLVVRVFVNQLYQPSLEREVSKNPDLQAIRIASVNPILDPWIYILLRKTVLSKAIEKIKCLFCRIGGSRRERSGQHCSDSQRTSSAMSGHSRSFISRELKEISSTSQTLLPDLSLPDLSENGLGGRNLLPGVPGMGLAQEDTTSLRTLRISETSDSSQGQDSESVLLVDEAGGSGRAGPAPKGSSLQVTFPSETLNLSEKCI
Chain of prostaglandin receptor EP2 (P43116 whole entry): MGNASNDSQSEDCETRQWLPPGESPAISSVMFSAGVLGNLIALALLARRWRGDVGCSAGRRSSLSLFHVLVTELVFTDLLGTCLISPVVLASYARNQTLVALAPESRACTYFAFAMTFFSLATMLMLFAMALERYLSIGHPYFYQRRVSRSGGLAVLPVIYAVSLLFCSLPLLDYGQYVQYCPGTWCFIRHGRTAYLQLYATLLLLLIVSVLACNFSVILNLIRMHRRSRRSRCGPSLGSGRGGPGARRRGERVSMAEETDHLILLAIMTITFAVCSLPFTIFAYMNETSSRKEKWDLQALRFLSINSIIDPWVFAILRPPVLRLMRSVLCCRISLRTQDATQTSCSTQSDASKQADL

O=C(O)CCC/C=C\C[C@@H]1[C@@H](/C=C/[C@H](O)C2Cc3ccccc3C2)[C@@H](F)C[C@@H]1O [AL-8810, (5Z, 13E)-(9S,11S,15R)-9,15-dihydroxy-11-fluoro-15-(2-indanyl)-16, 17, 18, 19, 20-pentanor-5,13-prostadienoic acid]
inhibition of functional responses of TP receptor [1]: not to significantly inhibit
inhibition of functional responses of DP receptor [2]: not to significantly inhibit
inhibition of functional responses of EP2 receptor [3]: not to significantly inhibit
inhibition of functional responses of EP4 receptor [4]: not to significantly inhibit
FP (PGF2α) receptor agonist activity, in words (FP receptor): weak partial agonist
FP (PGF2α) receptor antagonist activity, in words (FP receptor): highly selective antagonist; also recorded: micromolar potency

COc1cccc(-c2cc(=O)c3ccccc3o2)c1N [PD98059]
basal proliferation (BrdU incorporation) (Ishikawa cells [5]; PD98059 50 μM pre-treatment): 84.0±5.8%

CCCCC/C=C\C\C=C/C=C/C=C/[C@@H](SC[C@H](NC(=O)CC[C@H](N)C(=O)O)C(=O)NCC(=O)O)[C@@H](O)CCCC(=O)O [leukotriene C4]
IC50 (PGES): 5 µM

CCCCNC(=O)NS(=O)(=O)c1ccc(C)cc1 [tolbutamide]
FP (PGF2α) receptor antagonist activity, in words (FP receptor): very weak antagonists

Cc1ccc(S(=O)(=O)NC(=O)NN2CCCCCC2)cc1 [tolazamide]
FP (PGF2α) receptor antagonist activity, in words (FP receptor): very weak antagonists

CCCCC(F)[C@H](O)/C=C/[C@H]1CC[C@H](O)[C@@H]1C/C=C\CCCC(=O)O (stereo partly drawn) [AL-3138, 11-deoxy-16-fluoro PGF2α]
FP (PGF2α) receptor agonist activity, in words (FP receptor): weak partial agonist; also recorded: partial agonist of low efficacy
FP (PGF2α) receptor antagonist activity, in words (FP receptor): highly selective antagonist

CSc1ccc(/C=C2/C(C)=C(CC(=O)O)c3cc(F)ccc32)cc1 [sulindac sulphide]
IC50 (PGES): 80 µM

prostaglandin F2α [PGF2α]
concentration giving maximal InsP mobilisation (human endometrium): 100 nM
total InsP production following treatment (human endometrium): concentration-dependent increase
maximum total InsP (Ishikawa cells [6]): 29 cpm/mg protein
increase in phosphorylated ERK intensity compared to native ERK (Ishikawa cells [7]): 6.6±0.7 fold
BrdU incorporation (percentage of untreated cells) (Ishikawa cells [5]; PGF2α 100 nM (maximal), 24 h, Ishikawa cells): 136.3±7.48%
proliferation (HCT-8): lack of proliferation
proliferation (HT-29): lack of proliferation

COc1ccc2c(c1)CC[C@@H]1[C@@H]2CC[C@]2(C)[C@@H](NCCCCCCN3C(=O)C=CC3=O)CC[C@@H]12 [U73122]
effect on PGF2α-induced InsP mobilisation (human endometrium; pre-treatment with U73122 2 μM, PGF2α 100 nM): inhibited
basal proliferation (BrdU incorporation) (Ishikawa cells [5]; U73122 2 μM pre-incubation): 93.9±1.9%
